In ChEMBL document CHEMBL1122548, “1-Aryl-3,3-dimethyltriazenes: potential central nervous system active analogues of 5-(3,3-dimethyl-1-triazeno)imidazole-4-carboxamide (DTIC)” (J Med Chem, 1984):

Assays:
[1] = Partition coefficient (logP); type: physicochemical; settings: octanol/water
Mus musculus [2] = test: Maximum increase in life span was measured in B6d2F1 mice after implanting murine leukemia L1210 cells(ic, 10e4 cells) at an intracerebral optimal dose of 160 mg/ (kg day)(qd 1-9); type: functional
Mus musculus [3] = test: Maximum increase in life span was measured in B6d2F1 mice after implanting murine leukemia L1210 cells(ip, 10e5 cells) at an intraperitoneal optimal dose of 39 mg/ (kg day)(qd 1-9); type: functional
Mus musculus [4] = test: Percent increase in life span was measured in B6C3F1 mice after implanting murine Ependymoblastoma cells(ic) at an intraperitoneal optimal dose of 128 mg/ (kg injection)
Mus musculus [5] = test: Maximum increase in life span was measured in B6d2F1 mice after implanting murine leukemia L1210 cells(ip, 10e5 cells) at an intraperitoneal optimal dose of 108 mg/ (kg day)(qd 1-9); type: functional
Mus musculus [6] = test: Maximum increase in life span was measured in B6d2F1 mice after implanting murine leukemia L1210 cells(ic, 10e4 cells) at an intracerebral optimal dose of 40 mg/ (kg day)(qd 1-9); type: functional
Mus musculus [7] = test: Maximum increase in life span was measured in B6d2F1 mice after implanting murine leukemia L1210 cells(ip, 10e5 cells) at an intraperitoneal optimal dose of 65 mg/ (kg day)(qd 1-9); type: functional
Mus musculus [8] = test: Percent increase in life span was measured in B6C3F1 mice after implanting murine Ependymoblastoma cells(ic) at an intraperitoneal optimal dose of 64 mg/ (kg injection)
Mus musculus [9] = test: Maximum increase in life span was measured in B6d2F1 mice after implanting murine leukemia L1210 cells(ic, 10e4 cells) at an intracerebral optimal dose of 20 mg/ (kg day)(qd 1-9); type: functional
Mus musculus [10] = test: Maximum increase in life span was measured in B6d2F1 mice after implanting murine leukemia L1210 cells(ic, 10e4 cells) at an intracerebral optimal dose of 80 mg/ (kg day)(qd 1-9); type: functional
Mus musculus [11] = test: Percent increase in life span was measured in B6C3F1 mice after implanting murine Ependymoblastoma cells(ic) at an intraperitoneal optimal dose of 32 mg/ (kg injection)
Mus musculus [12] = test: Percent increase in life span was measured in B6C3F1 mice after implanting murine Ependymoblastoma cells(ic) at an intraperitoneal optimal dose of 8 mg/ (kg injection)
Mus musculus [13] = test: Percent increase in life span was measured in B6d2F1 mice after implanting B16 melanoma cells(ic) at an intracerebral (ic) optimal dose of 10-40 mg/ (kg day); type: functional
Mus musculus [14] = test: Maximum increase in life span was measured in B6d2F1 mice after implanting murine leukemia L1210 cells(ip, 10e5 cells) at an intraperitoneal optimal dose of 300 mg/ (kg day)(qd 1-9); type: functional
Mus musculus [15] = test: Percent increase in life span was measured in B6d2F1 mice after implanting B16 melanoma cells(ic) at an intracerebral (ic) optimal dose of 40-80 mg/ (kg day); type: functional
Mus musculus [16] = test: Maximum increase in life span was measured in B6d2F1 mice after implanting murine leukemia L1210 cells(ic, 10e4 cells) at an intracerebral optimal dose of 40 mg/(kg day)(qd 1-9); type: functional
Mus musculus [17] = test: Maximum increase in life span was measured in B6d2F1 mice after implanting murine leukemia L1210 cells(ip, 10e5 cells) at an intraperitoneal optimal dose of 65 mg/(kg day)(qd 1-9); type: functional

Work on `COC(=O)c1cccc(/N=N/N(C)C)c1` yielded a logP ([1]; read-out: logP) of 2.77, an ILS (Mus musculus [2]) of 10% and an ILS (Mus musculus [3]) of 30%. The ILS (Mus musculus [4]) was 62%.

With `CN(C)/N=N/c1cccc(Cl)c1` the logP ([1]; read-out: logP) was 3.3, the ILS (Mus musculus [5]) was 11% and the ILS (Mus musculus [6]) was 7%.

`CN(C)/N=N/c1ccccc1C(N)=O` showed an ILS (Mus musculus [7]) of 10% and an ILS (Mus musculus [6]) of 10%.

With `CC(=O)c1cccc(/N=N/N(C)C)c1` the logP ([1]; read-out: logP) was 2.19, the ILS (Mus musculus [7]) was 55% and the ILS (Mus musculus [6]) was 6%.

In the case of `COC(=O)c1ccc(/N=N/N(C)C)cc1`, the logP ([1]; read-out: logP) is reported as 2.77, the ILS (Mus musculus [2]) is reported as 7% and the ILS (Mus musculus [3]) is reported as 40%. For the same compound, the ILS (Mus musculus [8]) was 64%.

For `CC(=O)c1ccc(/N=N/N(C)C)cc1`, the logP ([1]; read-out: logP) was 2.19, the ILS (Mus musculus [9]) was 5% and the ILS (Mus musculus [5]) was 16%.

Work on `CN(C)/N=N/c1ccc(C(=O)O)cc1` yielded a logP [1] of -1.77, an ILS (Mus musculus [3]) of 41% and an ILS (Mus musculus [10]) of 25%. It also gave an ILS (Mus musculus [11]) of 18%.

For `CN(C)/N=N/c1ccccc1C(=O)O`, the logP ([1]; read-out: logP) was -2.66, the ILS (Mus musculus [12]) was 2% and the ILS (Mus musculus [7]) was 12%. It also gave an ILS (Mus musculus [9]) of 6%.

In the case of `CN(C)/N=N/c1[nH]cnc1C(N)=O` [DACARBAZINE], the ILS (Mus musculus [13]) is reported as 8%, the logP [1] is reported as -0.24 and the ILS (Mus musculus [2]) is reported as 18%. For the same compound, the ILS (Mus musculus [8]) was 60% and the ILS (Mus musculus [5]) was 50%.

`CN(C)/N=N/c1ccc(Br)cc1` gave a logP ([1]; read-out: logP) of 3.45 and an ILS (Mus musculus [14]) of 0%.

Compound `CN(C)/N=N/c1c(Br)cccc1Br` has a logP ([1]; read-out: logP) of 4.31, an ILS (Mus musculus [2]) of 14% and an ILS (Mus musculus [5]) of 44%.

With `CN(C)/N=N/c1ccccc1Cl` the ILS (Mus musculus [7]) was 21%, the ILS (Mus musculus [10]) was 5% and the ILS (Mus musculus [4]) was 38%.

Compound `CN(C)/N=N/c1ccc(Cl)cc1` has a logP ([1]; read-out: logP) of 3.3, an ILS (Mus musculus [10]) of 2% and an ILS (Mus musculus [5]) of 26%.

Work on `CN(C)/N=N/c1cccc(C(N)=O)c1` yielded a logP ([1]; read-out: logP) of 1.21, an ILS (Mus musculus [3]) of 50% and an ILS (Mus musculus [6]) of 22%.

In the case of `CN(C)/N=N/c1c(Cl)cccc1Cl`, the logP ([1]; read-out: logP) is reported as 4.01, the ILS (Mus musculus [2]) is reported as 12% and the ILS (Mus musculus [5]) is reported as 39%.

Work on `CN(C)/N=N/c1ccc(I)cc1` yielded a logP ([1]; read-out: logP) of 3.71 and an ILS (Mus musculus [14]) of 5%.

Compound `CN(C)/N=N/c1ccc(C(N)=O)cc1` has a logP [1] of 1.2, an ILS (Mus musculus [15]) of 30% and an ILS (Mus musculus [2]) of 45%. It also gave an ILS (Mus musculus [3]) of 40% and an ILS (Mus musculus [11]) of 62%.

`CC(=O)c1ccccc1/N=N/N(C)C` gave a logP ([1]; read-out: logP) of 2.19, an ILS (Mus musculus [5]) of 0% and an ILS (Mus musculus [6]) of 9%.

Compound `COC(=O)c1ccccc1/N=N/N(C)C` has a logP ([1]; read-out: logP) of 2.72, an ILS (Mus musculus [16]) of 14% and an ILS (Mus musculus [17]) of 11%.

`CN(C)/N=N/c1ccc(F)cc1` showed a logP ([1]; read-out: logP) of 2.73 and an ILS (Mus musculus [14]) of 16%.
